The record followed here is PubChem BioAssay AID1259407 (Chemical Carcinogenesis Research Information System (CCRIS), 2018).

The subject of this data set is CCRIS mutagenicity, Ames/micronucleus/aberration tests. The data set can be described thus: CCRIS mutagenicity studies.
Where [1] appears, read: Test System: AMES SALMONELLA TYPHIMURIUM, Strain/Indicator: TA98, Metabolic Activation: NONE, Method: STANDARD PLATE.
Where [2] appears, read: Test System: AMES SALMONELLA TYPHIMURIUM, Strain/Indicator: TA98, Metabolic Activation: RAT, LIVER, S-9, AROCLOR 1254, Method: STANDARD PLATE.
Where [3] appears, read: Test System: AMES SALMONELLA TYPHIMURIUM, Strain/Indicator: TA100, Metabolic Activation: NONE, Method: STANDARD PLATE.

Active and inactive are the calls of the source. The rule behind the calls is not given here.

Turning to `CCCCC(CC)COC(=O)CCCCC(=O)O` (centres undefined), the mutagenic call is “inactive; negative” (Test System: AMES SALMONELLA TYPHIMURIUM, Strain/Indicator: TA97, Metabolic Activation: NONE, Method: STANDARD PLATE); “inactive; negative” (Test System: AMES SALMONELLA TYPHIMURIUM, Strain/Indicator: TA97, Metabolic Activation: RAT, LIVER, S-9, AROCLOR 1254, Method: STANDARD PLATE); “inactive; negative” (Test System: AMES SALMONELLA TYPHIMURIUM, Strain/Indicator: TA97, Metabolic Activation: RAT, LIVER, S-9, DI(2-ETHYLHEXYL)PHTHALATE, Method: STANDARD PLATE); “inactive; negative” (Test System: AMES SALMONELLA TYPHIMURIUM, Strain/Indicator: TA98, Metabolic Activation: HAMSTER, LIVER, S-9, AROCLOR 1254 (10%), Method: PREINCUBATION); “inactive; negative” (Test System: AMES SALMONELLA TYPHIMURIUM, Strain/Indicator: TA98, Metabolic Activation: NONE, Method: PREINCUBATION); “inactive; negative” under setting [1]. The mutagenic call was “inactive; negative” (Test System: AMES SALMONELLA TYPHIMURIUM, Strain/Indicator: TA98, Metabolic Activation: RAT, LIVER, S-9, AROCLOR 1254 (10%), Method: PREINCUBATION); “inactive; negative” under setting [2]; “inactive; negative” (Test System: AMES SALMONELLA TYPHIMURIUM, Strain/Indicator: TA98, Metabolic Activation: RAT, LIVER, S-9, DI(2-ETHYLHEXYL)PHTHALATE, Method: STANDARD PLATE); “inactive; negative” (Test System: AMES SALMONELLA TYPHIMURIUM, Strain/Indicator: TA100, Metabolic Activation: HAMSTER, LIVER, S-9, AROCLOR 1254 (10%), Method: PREINCUBATION); “inactive; negative” (Test System: AMES SALMONELLA TYPHIMURIUM, Strain/Indicator: TA100, Metabolic Activation: NONE, Method: PREINCUBATION); “inactive; negative” under setting [3]. Moreover, the mutagenic call reads like this: (Test System: AMES SALMONELLA TYPHIMURIUM, Strain/Indicator: TA100, Metabolic Activation: RAT, LIVER, S-9, AROCLOR 1254 (10%), Method: PREINCUBATION) “inactive; negative”; (Test System: AMES SALMONELLA TYPHIMURIUM, Strain/Indicator: TA100, Metabolic Activation: RAT, LIVER, S-9, AROCLOR 1254, Method: STANDARD PLATE) “inactive; negative”; (Test System: AMES SALMONELLA TYPHIMURIUM, Strain/Indicator: TA100, Metabolic Activation: RAT, LIVER, S-9, DI(2-ETHYLHEXYL)PHTHALATE, Method: STANDARD PLATE) “inactive; negative”; (Test System: AMES SALMONELLA TYPHIMURIUM, Strain/Indicator: TA102, Metabolic Activation: NONE, Method: STANDARD PLATE) “inactive; negative”; (Test System: AMES SALMONELLA TYPHIMURIUM, Strain/Indicator: TA102, Metabolic Activation: RAT, LIVER, S-9, AROCLOR 1254, Method: STANDARD PLATE) “inactive; negative”; (Test System: AMES SALMONELLA TYPHIMURIUM, Strain/Indicator: TA102, Metabolic Activation: RAT, LIVER, S-9, DI(2-ETHYLHEXYL)PHTHALATE, Method: STANDARD PLATE) “inactive; negative”. Further, the mutagenic call (Test System: AMES SALMONELLA TYPHIMURIUM, Strain/Indicator: TA1535, Metabolic Activation: HAMSTER, LIVER, S-9, AROCLOR 1254 (10%), Method: PREINCUBATION) was “inactive; negative”; the mutagenic call (Test System: AMES SALMONELLA TYPHIMURIUM, Strain/Indicator: TA1535, Metabolic Activation: NONE, Method: PREINCUBATION) is “inactive; negative”; the mutagenic call (Test System: AMES SALMONELLA TYPHIMURIUM, Strain/Indicator: TA1535, Metabolic Activation: RAT, LIVER, S-9, AROCLOR 1254 (10%), Method: PREINCUBATION) is “inactive; negative”; the mutagenic call (Test System: AMES SALMONELLA TYPHIMURIUM, Strain/Indicator: TA1537, Metabolic Activation: HAMSTER, LIVER, S-9, AROCLOR 1254 (10%), Method: PREINCUBATION) is “inactive; negative”; the mutagenic call (Test System: AMES SALMONELLA TYPHIMURIUM, Strain/Indicator: TA1537, Metabolic Activation: NONE, Method: PREINCUBATION) was “inactive; negative”; the mutagenic call (Test System: AMES SALMONELLA TYPHIMURIUM, Strain/Indicator: TA1537, Metabolic Activation: RAT, LIVER, S-9, AROCLOR 1254 (10%), Method: PREINCUBATION) was “inactive; negative”.
Turning to `O=C(CCl)Nc1snc2cc(Cl)ccc12`, the mutagenic call was “inactive; negative” under setting [1]; “active; positive” (Test System: AMES SALMONELLA TYPHIMURIUM, Strain/Indicator: TA98, Metabolic Activation: S-9, Method: STANDARD PLATE); “active; positive” under setting [3]; “active; positive” (Test System: AMES SALMONELLA TYPHIMURIUM, Strain/Indicator: TA100, Metabolic Activation: S-9, Method: STANDARD PLATE); “inactive; negative” (Test System: AMES SALMONELLA TYPHIMURIUM, Strain/Indicator: TA1535, Metabolic Activation: NONE, Method: STANDARD PLATE); “inactive; negative” (Test System: AMES SALMONELLA TYPHIMURIUM, Strain/Indicator: TA1535, Metabolic Activation: S-9, Method: STANDARD PLATE). The mutagenic call is, setting by setting: (Test System: AMES SALMONELLA TYPHIMURIUM, Strain/Indicator: TA1537, Metabolic Activation: NONE, Method: STANDARD PLATE) “active; positive”; (Test System: AMES SALMONELLA TYPHIMURIUM, Strain/Indicator: TA1537, Metabolic Activation: S-9, Method: STANDARD PLATE) “active; positive”.
Regarding `Cc1cc2ncccc2c2nc(N=[N+]=[N-])n(C)c12`, the mutagenic call by setting is: (Test System: AMES SALMONELLA TYPHIMURIUM, Strain/Indicator: TA98(1,8-DNP6), Metabolic Activation: NONE, Method: STANDARD PLATE) “active; positive”; under setting [1], “active; positive”.
As for `CN1CC[C@]23c4c5ccc(O)c4O[C@H]2[C@@H](O)C=C[C@H]3[C@H]1C5`, the mutagenic call under setting [2] is “inactive; negative”.
Turning to `OC1c2ccc3nc4c(ccc5ccccc54)cc3c2C2OC2C1O` (centres undefined), the mutagenic call by setting is: (Test System: AMES SALMONELLA TYPHIMURIUM, Strain/Indicator: TA98, Metabolic Activation: RAT, LIVER, AROCLOR 1254, NADPH GENERATING SYSTEM, Method: STANDARD PLATE) “inactive; negative”; (Test System: AMES SALMONELLA TYPHIMURIUM, Strain/Indicator: TA100, Metabolic Activation: RAT, LIVER, AROCLOR 1254, NADPH GENERATING SYSTEM, Method: STANDARD PLATE) “inactive; negative”; (Test System: CHINESE HAMSTER V-79, Strain/Indicator: V-79/8-AZAGUANINE, Method: STANDARD PLATE) “inactive; negative”.
For `Nc1nc2c(s1)CC[C@@H]1NCCC[C@@H]21`, for the setting “Test System: AMES SALMONELLA TYPHIMURIUM, Strain/Indicator: TA1538, Metabolic Activation: RAT, LIVER, S-9, AROCLOR 1254, Method: STANDARD PLATE”, the mutagenic call is “inactive; negative”.
